Source: patent US20210113482A1, “Poly (Alkyl Cyanoacrylate) Nanoparticles for Use in Treatment of Cancer” (Sintef TTO AS, priority 2018, published 2021)
Like-named read-outs stand apart in the source and are kept apart here.

Columns and labels:
[1] = system: MAS98.12 patient derived xenograft (PDX) breast tumor, basal-like; experiment: Treatment efficacy in mice bearing MAS98.12 patient derived xenograft; type: in vivo
Description: (§1) Treatment efficacy evaluation in nude mice.
(§2) The ortothopically growing basal-like xenograft model MAS98.12 has been established in house and was used as previously described in Lindholm et al (2012). When using the MDA-MB-231 cell line, 1.5 million cells were injected into the mammary fat pad and growing tumors were used for sequential implantation. As for the MAS98.12 model, 1-2 mm^3 pieces of healthy tumor tissue were implanted bilaterally into the mammary fat pad of female athymic mice. After the tumors reached approximately 5 mm in diameter, the mice were randomly assigned to the different treatment groups (the average volume of each group was 49-57 mm^3).
Statistical analyses. To calculate the significance in the efficacy studies, the area under the curve was calculated for each tumor and the mean values of the groups were compared using the Welch unequal variance. To determine whether there is a significant difference between the frequencies of the tumor regression in the different treatment groups, we used the Fischer's exact test. If not stated otherwise, an unpaired two-sided Student t-test without Welch correction was used. The statistical analyses were performed using either GraphPad Prism (version 7.00 for Windows, GraphPad Software, La Jolla, Calif., US) or Microsoft Excel.

[2] = Biodistribution: CBZ in tumor and organs by LC-MS/MS in MAS98.12 bearing mice; type: in vivo; settings: 15 mg/kg i.v.
Description: (§3) CBZ quantification by LC-MS/MS. CBZ, as the pure chemical or part of NPs, was quantified by LC-MS/MS, using an Agilent 1290 HPLC system coupled to an Agilent 6490 triple quadrupole mass spectrometer. The HPLC column was an Ascentis Express C8, 75×2.1 mm, 2.7 μm particles size with a 5×2.1 mm guard column of the same material (Sigma), run at 40° C. Eluent A was 25 mM formic acid in water and eluent B was 100% methanol, and flow rate was 0.5 ml/min. The mobile phase gradient was isocratic at 55% B for 1.5 min, then from 55% to 80% B over 1 min, followed by 1 min washout time and subsequently column re-equilibration. Injection volume was 5.00 μl. MS detection was in positive ESI mode (Agilent Jetstream) quantified in multiple reaction monitoring (MRM) mode using the transition m/z 858.3→577.2. The parent ion was chosen to be the Na adduct as this gave the best sensitivity. Similarly, the hexadeuterated internal standard was detected on the 864.4→583.2 transition. Both analytes were run at 380 V fragmentor and 20 V collision energy.
Processing of tissue samples before LC-MS/MS analyses. In order to process the tissue samples such that their CBZ content could be quantified, we developed a protocol for enzymatic digestion of tissue followed by extraction and quantification of CBZ using the LC-MS/MS method described above. The enzyme buffer consisted of Dulbecco's Modified Eagle Medium (DMEM, Thermo Fisher Scientific, USA, 41965039) with 1% (v/v) penicillin-streptomycin stock solution (Sigma-Aldrich, P0781) to a final concentration of 100 U/ml penicillin and 100 μg/ml streptomycin, 0.125 mg/ml papain (Merck, F275644), 2.5 mg/ml trypsin (Sigma-Aldrich, T7409), 0.8 mg/ml collagenase (Sigma-Aldrich, C7926), 0.69 mg/ml hyaluronidase (Sigma-Aldrich, H3506) and 1% (v/v) Triton X-100 (Sigma-Aldrich, T-8787). To determine the biodistribution of CBZ, frozen organs (liver, spleen, lymph nodes, kidneys, tumors) were thawed and freshly prepared enzyme buffer was added at 1 ml per 50 mg tissue; the entire organs were digested. The samples were heated to 37° C. for 72 h with vortexing once a day, until the tissue was completely dissolved. The tissue digests, as well as the plasma samples from the animals, were diluted 10× in acetone before centrifugation; this has the dual effect of both precipitating proteins and other macromolecules, thus cleaning up the sample, and making sure all CBZ is solubilized. Internal standard (hexadeuterated CBZ) dissolved in acetone was added to a final concentration of 10 ng/ml during the acetone dilution to correct for possible matrix effects.
Biodistribution and pharmacokinetics in blood. Blood and tissue samples were obtained following a single i.v. injection of PEBCA-CBZ and non-encapsulated CBZ (15 mg/kg) into the tail vein of mice bearing the MAS98.12 tumor (n=3). Empty particles (PEBCA) and saline were used as negative controls. The blood samples were taken either per tail vein puncture (approximately after 2 min and thereafter at 1, 4 and 24 h after injection) or by terminal cardiac puncture (96 h after injection) in Vacutainer tubes containing EDTA (BD Biosciences, San Jose, Calif., USA) and kept on ice. The 0-24 h samples were collected consecutively from the same animals (n=3) while samples after 96 h were obtained from separate mice (n=3). The blood was centrifuged for 15 min at 4° C. and 3400×g, and the supernatant plasma was collected and stored at −80° C. until LC-MS/MS analysis. […]

[3] = Pharmacokinetics in blood: CBZ in plasma by LC-MS/MS in MAS98.12 bearing mice; type: in vivo; settings: female, athymic nude foxn1nu, mouse, iv, 15 mg/kg, 15 mg/kg i.v.
Description: as §3
Processing of tissue samples before LC-MS/MS analyses. In order to process the tissue samples such that their CBZ content could be quantified, we developed a protocol for enzymatic digestion of tissue followed by extraction and quantification of CBZ using the LC-MS/MS method described above. […]

[4] = system: MDA-MB-231, MDA-MB-468 and MCF-7 cells; experiment: In vitro cellular toxicity: MTT cell viability (72 h) and [3H]thymidine incorporation (24 h) in three breast cancer cell lines; type: cell-based, human; settings: MTT assay, 72 h incubation, all cell lines
Description: Cell lines. Three breast cancer cell lines were used in this study. The MDA-MB-231 (triple negative; Claudin low), was cultured in RPMI 1640; the MDA-MB-468 (triple negative; basal) and the MCF-7 (luminal A) cell lines were cultured in DMEM. All medium was fortified with 10% (w/v) fetal calf serum albumin (Sigma) and 100 units/ml penicillin/streptomycin (PenStrep®, Sigma). All cell lines were obtained from ATCC and were routinely tested for mycoplasma. Cells growing in 24- or 96-well plates were incubated with serial dilutions of PEBCA-CBZ, CBZ (non-encapsulated CBZ) dissolved in Tween-80 (Fluka)), and PEBCA without CBZ for 24, 48 or 72 h at 37° C. in an atmosphere of 5% CO2. The toxicity was assessed either by the commonly used MTT (3-(4,5-dimethylthiazol-2-yl)-2,5-diphenyltetrazolium bromide) cell viability assay, by measuring cell proliferation based on [^3H]thymidine incorporation, by measuring protein synthesis by incorporation of [^3H]leucine and by measuring ATP levels using CellTiter Glo®.
MTT cell viability assay. […] The absorbance was read in a plate reader (Biosys Ltd, Essex, UK) at 570 nm, and background from absorbance at 650 nm was subtracted.
Cell proliferation measured by [^3H]thymidine incorporation. […] The radioactivity was counted for 1 min in a scintillation counter (Tri-Carb 2100TR, Packard Bioscience, USA).

MDA-MB-231 tumors = experiment: Treatment efficacy in mice bearing MDA-MB-231 tumors; type: in vivo; settings: 2×15 mg CBZ/kg i.v.
Description: as §1, §2

[5] = system: iNOS (M1, anti-tumorigenic pro-inflammatory macrophages); experiment: Macrophage infiltration in treated MAS98.12 tumors, immunohistochemistry with anti-iNOS; type: in vivo, mice; settings: 96 h after single injection
Description: (§4) Immunohistochemistry. Tumors from MAS98.12 bearing mice were collected 96 h after a single injection of the same substances as were injected in the MAS98.12 efficacy study. The tumors were preserved in 4% (v/v) formalin and then paraffinized and sliced to prepare consecutive slides (3 μm thick). The deparaffinization agent Neo-clear and mounting agent Neo-mount were obtained from VWR (Radnor, Pa., USA). Heat induced epitope retrieval was performed by placing deparaffinized slides with 10 mM sodium citrate buffer (pH 6.0) in water bath for 20 min at 100° C. Endogenous peroxidase activity was blocked by incubating slides with 3% (v/v) hydrogen peroxide in Tris-buffered saline (TBS; 50 mM Tris-Cl, 150 mM NaCl, pH 7.6). Sections were washed and blocking of non-specific binding was performed with 3% (w/v) bovine serum albumin (Roche diagnostics GmbH, Mannheim, Germany) in TBS for 30 min. Sections were then incubated for 60 min with the primary antibodies. […]
(§5) Stained tissue sections were scanned (NanoZoomer HT, Hamamatsu Photonics, Hamamatsu, Japan) using a 40× objective. The extent of CD68, iNOS and CD206 was automatically scored using the ImmunoPath software (Room4 Ltd., Crowborough, UK). […] The annotated representative areas were analyzed further by computerized image analysis. […]

[6] = system: CD206 (M2, pro-tumorigenic anti-inflammatory macrophages); experiment: Macrophage infiltration in treated MAS98.12 tumors, immunohistochemistry with anti-CD206; type: in vivo, mice; settings: 96 h after single injection
Description: as §4, §5

[7] = system: CD68 (whole macrophage population); experiment: Macrophage infiltration in treated MAS98.12 tumors, immunohistochemistry with anti-CD68; type: in vivo, mice; settings: 96 h after single injection; compared to free CBZ or saline; not statistically significant
Description: as §4, §5

change of CBZ concentration in tissue from 24 to 96 h [2]: significantly lower in tumors after 96 h | CBZ level in tumor relative to the PEBCA-CBZ group ([2]; 24 h): about ⅓ | tissue with the highest CBZ amount ([2]; 24 h): the tumor | tissues in which CBZ could be detected (above LOQ) ([2]; 96 h): only in the tumor tissue | CBZ concentration in tumors relative to that after PEBCA-CBZ ([2]; 96 h, difference not significant (p=0.18)): approximately 50% | half-life ([3]; from mean values of the two last time points (24 and 96 h), read-out: elimination half-life (converted)): ~60 h | half-life ([3]; interpolation of the two first data points (up to 1 hr), read-out: distribution half-life): ~0.5 h
Structure (SMILES): CO[C@H]1C(=O)[C@]2(C)[C@@H](OC)C[C@H]3OC[C@@]3(OC(C)=O)[C@H]2[C@H](OC(=O)c2ccccc2)[C@]2(O)C[C@H](OC(=O)[C@H](O)[C@@H](NC(=O)OC(C)(C)C)c3ccccc3)C(C)=C1C2(C)C [CBZ, cabazitaxel]
Tumor growth ([1]; 2×15 mg CBZ/kg i.v. (particle dose 2×175 mg/kg), day 33 and 36): markedly inhibited tumor growth | tumors in complete remission ([1]; 2×15 mg CBZ/kg i.v., non-palpable tumors at day 57 after implantation): 2 out of 9 | fraction of the cells surviving even very high CBZ concentrations [4]: 10-20% | Tumor growth (MDA-MB-231 tumors): a delay in tumor growth was observed | efficacy compared to MAS98.12 (MDA-MB-231 tumors): less effective | pro-inflammatory M1 macrophages (iNOS) in tumors [5]: no response in the macrophage populations | anti-inflammatory M2 macrophages (CD206 positive cells) in tumors [6]: no response in the macrophage populations | total tumor infiltrating macrophages (CD68) [7]: no response in the macrophage populations
